Read-outs that look alike come from different tables or passages of the source. Where a SMILES comes first, the peptide text is derived from it.
Experiments:
[1] = system: Zucker fa/fa rats; experiment: conditioned taste aversion; format: in vivo, rat; conditions: test days 4, 7, 11, 14 versus control; lithium chloride 75 mg/kg i.p.; S38151 20 nmol/kg i.c.v.; n = 10-11
[2] = system: ob/ob mice; experiment: daily i.p. S38151 in ob/ob mice; format: in vivo, mouse
Procedure: In these studies, 13-week-old female C57BL/6J, ob/ob, and MCH1-KO mice were used. The mice were maintained on a 12-h light/dark cycle (lights on at 07:30 and off at 19:30) at 22 ± 3°C, and supplied with food pellets (6 mm diameter A03, UAR Laboratory chow, Epinay Villemuisson France) and tap water ad libitum. To induce obesity in C57BL/6J (creating diet-induced obese, or DIO, mice), mice were fed a high-fat diet (60 kcal% fat, 20 kcal% protein, 20 kcal% carbohydrate, ref D12492 from Research Diets, New Brunswick, NJ08901, USA) for 8 weeks starting at 4 weeks of age. In these experiments, DIO mice, ob/ob mice, and MCH^−/−1 mice were individually housed in a modular chamber that was placed on an activity platform to concurrently measure the food intake, water intake, and activity of the mice (ADDENFI, Les Cordeliers, Paris, France). For at least 2 weeks before experimentation, mice were habituated to a diet of 6 mm diameter food pellets of the following composition: 67.5% food flour, 26.5% sucrose, 5% gum tragacanth, 1.25% magnesium stearate (A03 UAR, Orge, France), and to i.p. injection. After this habituation period, food intake, drink intake, and body weight were measured for 3 consecutive days. The mice were randomized into three groups based on their food and water intake over the three preceding 24-h periods, and on their body weight. Next, the quantity of food eaten over each 24-h period during the 5 days of i.p. treatment with S38151 [10 and 30 mg/kg/day (7 and 20 μmol/kg/day)] or vehicle was determined and corrected for spillage.
Figure 8 The effects of repeated daily S38151 injection on food and water intake, body weight, and motility in ob/ob mice. Genetically modified ob/ob mice were administered S38151 (10 and 30 mg/kg, i.p.) or vehicle (normal saline i.p.) for 6 consecutive days. Results are expressed as mean ± SEM (n = 8 mice per group). White squares for controls, dark squares for 10 mg/kg, and dark triangles for 30 mg/kg.

[3] = stability in TRIS buffer pH 7.4; format: physicochemical; conditions: pH 7.4, Tris buffer pH 7.4, 40 μM, LC-MS/MS, representative of three experiments, read-out: % S38151 remaining
Procedure: First, S38151 was incubated for 16 h at 4°C and 37°C in mouse plasma or in TRIS buffer (pH 7.4). Next, plasma proteins were precipitated with two volumes of acetonitrile. After centrifugation and dilution with a water/acetonitrile mixture (50/50 v/v), the supernatant was injected onto a triple quadripole mass spectrometer (Ultima, Micromass WATERS Corporation, Milford, USA). The liquid chromatographic system consisted of an Agilent 1100 analytic pump (Agilent, Santa Clara, USA) equipped with an Alpha Mos CTC autosampler (Alpha Mos, Toulouse, France). Mass detection was performed using the m/z transition 743.5 > 163, in positive electrospray. A second stability study was performed at a lower concentration (1 μM) and for 4 h, with the following sampling times: 0, 15, 45, 90, and 240 min. At each sampling time, 50 μL of plasma were precipitated with two volumes of acetonitrile, and after centrifugation were directly injected onto the LC-MS/MS system. The same treatment was used for the buffer samples.
Figure 2 Studies regarding the stability of S38151. A solution of S38151 (40 μM) was incubated with either Tris buffer, pH 7.4 (hatched bars), or mouse plasma samples (dark bars) for 16 h at 4°C or 37°C. The samples were analyzed using liquid chromatography coupled to mass spectrometry. Experiments were repeated three times. The chart presented is representative of the experimental results. […]

[4] = system: Zucker fa/fa rats; experiment: acute i.p. administration, food intake in fasted rats; format: in vivo, rat; conditions: S38151 30 mg/kg i.p.
Procedure: Zucker fa/fa rats were habituated in the same conditions as Wistar rats (described in section “Acute Central Peptide Administration and Feeding Studies in Wistar Rats”). At 09:00 on the day of study, after fasting for 24 h, either vehicle (normal saline) or S38151 [30 mg/kg (20 μmol/kg)] was administered intraperitoneally (i.p.).
Figure 6 The effect of S38151 on food intake in Zucker fa/fa rats after acute peripheral administration. Rats were fasted for 24 h, and then injected (i.p.) at the beginning of the light phase with vehicle (normal saline) or 30 mg/kg S38151. Cumulative food intake was measured 1, 2, 4, 6, and 24 h after injection. Results are expressed as mean ± SEM (n = 16 rats per group).

[5] = target: MCH1; conditions: ref Audinot et al., 2009, cited from earlier work; for Kb: full antagonist, CHO cells over-expressing MCH1
Excerpt: S38151 was synthesized during a process that was attempting to find peptides or pseudopeptides with affinity at MCH1 receptor that also had greater stability in biological media. This pseudopeptide is derived from another, very similar agonist, pGua (MCH7-17) (Audinot et al., [2001a], [2009]). […] This activity was specific to MCH1, since it ...

For `CSCC[C@@H]1NC(=O)[C@@H](NC(=O)c2ccc(NC(=N)N)cc2)CSSC[C@@H](C(=O)N[C@@H](Cc2c[nH]c3ccccc23)C(=O)O)NC(=O)[C@@H]2CCCN2C(=O)[C@H](CCCNC(=N)N)NC(=O)[C@H](Cc2ccc(O)cc2)NC(=O)[C@H](C(C)C)NC(=O)[C@H](CCCNC(=N)N)NC(=O)[C@H](CC(C)C)NC1=O` [S38151, p-guanidinobenzoyl-(Des-Gly10)-MCH (7–17)] (HELM PEPTIDE1{[N=C(N)Nc1ccc(C(=O)[*:2])cc1].C.M.L.R.V.Y.R.P.C.W}$PEPTIDE1,PEPTIDE1,2:R3-10:R3$$$V2.0; C-terminus assumed), the 0.2% saccharine consumption [1] was “did not affect”, the glycemia and insulinemia ([2]; S38151 30 mg/kg i.p., day 6, data not shown) was “significant reductions” and the body weight ([2]; S38151 10 and 30 mg/kg i.p. daily for 6 days, 30 mg/kg significant at days 1, 4, 5, 6) was “dose-dependent reduction”. For the same molecule, the water intake ([2]; S38151 10 and 30 mg/kg i.p. daily for 6 days, same profile as food intake) was “did not reach statistical significance”, the food intake ([2]; S38151 10 and 30 mg/kg i.p. daily for 6 days, significant from day 3 only at 30 mg/kg, n = 8) was “dose-dependent inhibition” and the remaining at 16 h, 40 μM ([3]; 4°C) was 79%. The remaining at 16 h, 40 μM ([3]; 37°C) was 32%, the “food intake, first hour” value ([4]; 24-h fasted Zucker fa/fa rats, control 3.6 ± 0.4 g, mean ± SEM, n = 16) was 0.09 ± 0.06 g and the “inhibition of food consumption within 1 h” value ([4]; Zucker fa/fa rats) was “complete inhibition”. The “decrease in food intake up to 24 h after drug administration” value ([4]; cumulative food intake versus control) was “maintained statistical significance”, the Ki ([5]; [125I]-S36057 binding, Chinese hamster ovary cells over-expressing MCH1) was 80 nM and the Kb ([5]; read-out: KB, GTPγS binding assay) was 4.3 nM. For the same molecule, the Kb ([5]; read-out: KB, calcium flux assay) was 210 nM.

Source: article PMC3527734, “Peripheral injections of melanin-concentrating hormone receptor 1 antagonist S38151 decrease food intake and body weight in rodent obesity models” (Frontiers in Endocrinology, 2012)
